Assay [1] deals with T1, rsE-selectin (Homo sapiens, UniProt P16581).
T1 sequence (P16581 22-556 limits assumed): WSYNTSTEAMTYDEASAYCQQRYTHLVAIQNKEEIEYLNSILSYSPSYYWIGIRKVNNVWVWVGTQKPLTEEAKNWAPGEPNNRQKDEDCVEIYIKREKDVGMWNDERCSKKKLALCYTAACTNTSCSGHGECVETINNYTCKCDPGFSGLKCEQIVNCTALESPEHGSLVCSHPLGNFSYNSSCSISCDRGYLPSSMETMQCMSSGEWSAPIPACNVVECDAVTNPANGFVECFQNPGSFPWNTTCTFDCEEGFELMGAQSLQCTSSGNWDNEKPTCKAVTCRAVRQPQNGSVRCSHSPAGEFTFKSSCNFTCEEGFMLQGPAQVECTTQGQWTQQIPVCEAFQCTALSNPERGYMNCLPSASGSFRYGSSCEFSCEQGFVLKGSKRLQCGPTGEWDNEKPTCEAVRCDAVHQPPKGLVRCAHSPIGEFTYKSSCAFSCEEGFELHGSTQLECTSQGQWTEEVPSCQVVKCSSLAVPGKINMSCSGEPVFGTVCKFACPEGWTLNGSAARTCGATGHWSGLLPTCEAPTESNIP
The assay can be described thus: Inhibition of adhesion of HL-60 cells to plate-coated rsE-selectin (Experiment 2). The assay is classed as cell-based. The settings on record: 50% inhibition concentration of adhesion of rsE-selectin to HL-60, from inhibition curves; medium-only well = 100%. How it is done: The DPBS solution containing rsE-selectin (3 µg/ml) was added to a 96 well plate at 50 µl/well, while wells filled with DPBS without rsE-selectin (non-specific adhesion control) were prepared on the same plate, and the plate was kept at room temperature for 3 hours. Then wells were washed 3 times with a DPBS/BSA solution at 200 µl/well, and DPBS/BSA solution was added at 200 µl/well, and the plate was kept at room temperature for 1 hour. After removing DPBS/BSA solution, a medium containing NWB or NWB plus a compound of the invention was added at 40 µl/well.
Frozen HL-60 cells were thawed promptly at 37°C, and washed with NWB cooled to 4°C 3 times by centrifugation at 1500rpm × 5 min. The cells were adjusted with NWB to 1×10^7 cells/ml, added to the plate at 20 µl/well, and the plate was kept at room temperature for 15 min.
The plate was set on a plate washer to remove nonadhesive HL-60 cells. The plate washer was set at slow mode, cycle 3 (washing 3 times), soak 0 sec., 12 rows (along vertical direction), and volume of NWB for 1 washing 200 µl/well at room temperature.
A citrate solution containing 0.1% NP-40 at room temperature was added at 50 µl/well, and the plate was kept at room temperature for 5 minutes. The substrate solution (4 mg OPDA, 4µl 30% H2O2/4 ml citrate) was added at 50 µl/well, protected from light with aluminum foil, allowed to develop color for 5 to 20 minutes, and the reaction was terminated by adding 4N-H2SO4 at 50µl/well. The substrate solution was used within 30 minutes after preparation.
The OD490 of each well was determined, and the OD490 value of the well for nonspecific adhesion was subtracted from the value of each well. The value found in a well containing only the medium was used as a control (100%) and the amount of adhesion in wells containing Compounds (15), (31), (33)-(40) or (41) of the invention was calculated by percent in terms of the values of the control. By drawing inhibition curves, 50% inhibition concentration (IC50) was determined.
The materials for the experiment were obtained from the following sources. rsE-selectin: producible by the method described in J. C. Poulson, J. Am. Chem. Soc., 117: 66-79 (1995). The sample of rsE-selectin used in the experiments was kindly supplied by the author. HL-60 : ATCC Corp. DPBS (Dulbecco Phosphate Buffered Saline) : GIBCO Corp. BSA (Bovine Serum Albumin) : Sigma Corp. HBSS (Hanks Balanced Salt Solution) : GIBCO Corp. OPDA (Ortho-phenylenediamine) : Sigma Corp. RPMI 1640 medium : GIBCO Corp. Bovine Fetal Serum : GIBCO Corp. Plate : Immulon. 2. (flat bottomed) : Dynatech Laboratories. Plate washer; Microplate Washer : Molecular Devices Corp.
A compound of the present invention was adjusted to 100mM with DPBS, and pH was adjusted to 7.1-7.4.
HL-60 was cultured in RPMI 1640 medium supplemented with 10% Bovine Fetal Serum. Using a cell freezing solution consisting of 80% RPMI 1640 medium + 10% Bovine Fetal Serum + 10% DMSO, HL-60 was frozen at 1.5 × 10^7 cells per a tube according to a conventional method, and stocked at -80°C. This was used under sterile condition.
Composition of DPBS/BSA was DPBS + 1% BSA.
Composition of NWB was HBSS + 10mM-HEPES + 0.2%glucose + 1%BSA+ 1mM-CaCl2. These two solutions are prepared under sterile condition.
The citrate solution was prepared by dissolving 2.33 g of citric acid and 9.20 g of Na2HPO4·12H2O in 500 ml of desalted water.

Assay [2] has as its system adhesion of HUVEC to neutrophils. The assay can be described thus: Inhibition of adhesion of neutrophils (treated with anti-CD18 antibody) to IL-1β-stimulated HUVEC (Experiment 1). The settings on record: at a concentration of 0.05-0.5mM; wells without compound = 100%. The class given is cell-based, human. The procedure:
To each well of a 96 well plate was added a PBS solution containing 0.1% gelatine at 50 µl/well, and after 15 minutes at room temperature, the solution was removed with a Pasteur pipette. On the coated 96 well plate, human umbilical vein endothelial cells (HUVEC, 5th generation) were cultured until confluent. The culture medium was removed with a Pasteur pipette and the MEM medium containing 45 U/ml of IL-1β was added at 100 µl/well, and incubated for 4 hours. On the same plate, wells containing the MEM medium without IL-1β were prepared and similarly incubated for 4 hours.
Blood was collected from a healthy human using heparin as an anticoagulant. In a 50 ml-tube was placed 15 ml of neutrophil·monocyte fraction, and 25 ml of whole blood was gently layered. The brake function was released and centrifuged at 1700 rpm for 30 minutes at room temperature, and the neutrophil layer was collected and transferred into a 50 ml tube containing 30 ml of HBSS solution. The brake function was recovered and centrifuged at 3000 rpm for 3 minutes at room temperature, the supernatant was removed, and 30 ml of HBSS was added for resuspension. This procedure was repeated twice. The neutrophils were counted using hemocytometer, adjusted to 5×10^6 cells/ml with the HBSS solution, charged in a 15 ml tube, mixed with anti-CD18 antibody at final concentration of 10 µg/ml, and incubated for 1 hour with occasional gentle swirling.
MEM medium was removed from the HUVEC plate with a Pasteur pipette, a compound of the present invention diluted with MEM medium at 50 µl/well was added, and incubated for 20 minutes.
The neutrophils treated with anti-CD18 antibody were added to the HUVEC plate at 25 µl/well, and incubated for 5 minutes. […]
The OD490 of each well was determined, and the OD490 value of wells containing MEM medium without IL-1β was subtracted from that of each well. The value found in wells containing none of the compounds of the present invention was set to be 100% and the […] of the compound of the invention was assessed as shown in Figure 1. […]

The values below come from EP0801071A1, “LEWIS X DERIVATIVE AND PROCESS FOR PRODUCING THE SAME” (SUMITOMO PHARMACEUTICALS COMPANY, LIMITED, priority 1994, dated 1996).

SMILES strings stand for the structures. pIC50: −log10 of the molar value.

By pIC50 is commonly meant −log10 of the IC50, conventionally taken in molar units. Take `CC(=O)N[C@H]1[C@H]([C@H](O)[C@H](O)CO)O[C@@](O[C@H]2[C@@H](O)[C@@H](CO)O[C@@H](O[C@H]3[C@H](O[C@@H]4O[C@@H](C)[C@@H](O)[C@@H](O)[C@@H]4O)[C@@H](NC(=O)c4ccc5ccccc5c4)[C@H](OCCCCCCCCCO)O[C@@H]3CO)[C@@H]2O)(C(=O)O)C[C@@H]1O` [Compound 35, 9-Hydroxynonyl (5-acetamido-3,5-dideoxy-α-D-glycero-D-galacto-2-nonulopyranosylonic acid)-(2→3)-O-(β-D-galactopyranosyl)-(1→4)-O-[α-L-fucopyranosyl-(1→3)-O ]-(2-deoxy-2-naphthamido-β-D-glucopyranoside)]: the negative logarithm of the IC50 (pIC50) in assay [1] was 4.30. The “inhibited the adhesion of HUVEC to neutrophils” value (“inhibited the adhesion of HUVEC” below) in assay [2] is no less than 50%.

As for `CCOCCOCCO[C@@H]1O[C@H](CO)[C@@H](O[C@@H]2O[C@H](CO)[C@H](O)[C@H](O[C@]3(C(=O)O)C[C@H](O)[C@@H](NC(C)=O)[C@H]([C@H](O)[C@H](O)CO)O3)[C@H]2O)[C@H](O[C@@H]2O[C@@H](C)[C@@H](O)[C@@H](O)[C@@H]2O)[C@H]1NC(=O)c1ccc2ccccc2c1` [Compound 31, 2-(2-Ethoxyethoxy)ethyl (5-acetamido-3,5-dideoxy-α-D-glycero-D-galacto-2-nonulopyranosylonic acid)-(2→3)-O-(β-D-galactopyranosyl)-(1→4)-O-[α-L-fucopyranosyl-(1→3)-O]-(2-deoxy-2-naphthamido-β-D-glucopyranoside)], the pIC50 in assay [1] is 3.96. Moreover, the “inhibited the adhesion of HUVEC” value in assay [2] is no less than 50%.

Take `COc1cc(CO[C@@H]2O[C@H](CO)[C@@H](O[C@@H]3O[C@H](CO)[C@H](O)[C@H](O[C@]4(C(=O)O)C[C@H](O)[C@@H](NC(C)=O)[C@H]([C@H](O)[C@H](O)CO)O4)[C@H]3O)[C@H](O[C@@H]3O[C@@H](C)[C@@H](O)[C@@H](O)[C@@H]3O)[C@H]2NC(=O)c2ccc3ccccc3c2)cc(OC)c1OC` [Compound 15, 3,4,5-trimethoxybenzyl (5-acetamido-3,5-dideoxy-α-D-glycero-D-galacto-2-nonulopyra nosylonic acid)-(2→3)-O-(β-D-galacto-pyranosyl)-(1→4)-O-[α-L-fucopyranosyl-(1→3)-O]-(2-deoxy-2-naphthamido-β-D-glucopyranoside)]: in assay [1], the pIC50 was 3.96. Also, the “inhibited the adhesion of HUVEC” value in assay [2] is listed as no less than 50%.
